One data set deals with RSV. Particulars: cited from earlier work. The text has this:
The RSV fusion glycoprotein (F) is the focus of active research in the field of vaccines, neutralizing antibodies, and small molecules. […] RSV F is a type I fusion protein that is activated into a metastable prefusion state upon cleavage by host proteases. The prefusion state contains a hydrophobic fusion peptide, ...

For data set [1] the following is noted: all solvents tested.
Data set [2] in a line: Proteolytic stability assay, chymotrypsin. The format is in vitro ADME. Particulars: chymotrypsin (isolated protease); 10 μl peptide 0.29 mM in 990 μl 100 mM Tris-HCl pH 8.0, 10 mM CaCl2; 10 μl chymotrypsin 50 μg/ml; 25°C; LC-MS of intact peptide, exponential decay fit; 3 experiments. On the procedure:
(§1) This is an important parameter to assess for the development of peptide therapeutics. Peptides 4bb, 4ca, and 4a, and the unstapled analog peptide 4, as well as both SAH-RSVFBD isomers, were treated with chymotrypsin or trypsin, and the samples were analyzed by LC/MS to quantify the reaction products over time. […] In comparison, both SAH-RSVFBD isomers were more susceptible to proteolytic degradation, with half-lives of approximately 7 h and 5 min against chymotrypsin and trypsin, respectively.
(§2) In vitro proteolytic degradation was measured via LC-MS using an Agilent Infinity 1280 UHPLC system coupled to an Agilent quadrupole time of flight (QTOF) 6530 instrument with an Agilent Jet Stream electrospray ionization (AJS ESI) source (all from Agilent Technologies, Waldbronn, Germany). Five microliters of digested sample was injected onto a C18 column (Zorbax Eclipse Plus RRHD, 1.8 μm, 2.1 by 100 mm; Agilent Technologies, Waldbronn, Germany) equilibrated with solvent A (5% acetonitrile, 0.2% formic acid) and eluted with a flow rate of 0.4 ml/min over a 5 to 95% gradient of solvent B (95% acetonitrile, 0.2% formic acid) in 5 min, followed by 1.5 min at 95% and 0.5 min posttime. The AJS ESI source was operated with a capillary voltage of 4,000 V and a nozzle voltage of 600 V with a drying gas temperature of 325°C and flow rate of 10 liters/min, nebulizing gas pressure of 20 lb/in^2, and a sheath gas temperature of 300°C and flow rate of 11 liters/min. Mass spectra were acquired in the positive-ion mode from 100 to 3,200 m/z at a rate of 1 scan per second in extended dynamic range (2 GHz) mode. The fragmentor, skimmer, and octopole RF voltages were set to 200, 60, and 750 V, respectively. Data were acquired and analyzed with the Agilent MassHunter Workstation (version B.05).
(§3) Peptide digestion was performed as follows: 10 μl of peptide at 0.29 mM in 50:50 acetonitrile-water was dissolved in 990 μl 100 mM Tris-HCl (pH 8.0) with 10 mM CaCl2. Following measurement of the undigested (t0) sample, 10 μl of chymotrypsin at 50 μg/ml in 100 mM Tris-HCl (pH 8.0) with 10 mM CaCl2 was added, and the sample was vortexed and placed immediately in the autosampler, set to 25°C. The level of intact peptide was quantified by serial injection over time. Integration of the intact peptide compound chromatogram was performed using the Agilent Molecular Feature Extraction (MFE) algorithm. The value of the fit at t = 0 min was used to calculate the percentage of the intact peptide at each point as follows: Percent intact (t) = [Vol (t)/Volt0] × 100, where Vol is the total volume calculated using Find Compounds by Molecular Feature and Volt0 is the value of the fit at time t = 0. A plot of the intact peptide MFE peak area over time gave an exponential decay curve, from which the half-life was determined using MatLab […].

A further data set deals with chymotrypsin. The experiment in a line: Proteolytic stability assay, chymotrypsin. The format is in vitro ADME. To be noted: treated with chymotrypsin or trypsin, LC/MS. The method, then: as §1, §2, §3
A short description of data set [3]: Proteolytic stability assay, trypsin. The format is in vitro ADME. Particulars: trypsin (isolated protease); 100 mM Tris-HCl pH 8.0, 10 mM CaCl2, 25°C; LC-MS of intact peptide, exponential decay fit; 3 experiments. The method, then: as §1, §2
as §3, with “Integration of the intact peptide compound chromatogram was performed using the Agilent Molecular Feature Extraction (MFE) algorithm.” left out

Data set [4] has as its system rHRSV-mCherry in HEp-2 cells. In words: rHRSV-mCherry inhibition assay. Format: cell-based, human respiratory syncytial virus. To be noted: HEp-2 cells. An outline of the steps: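 HEp-2 cells infected at MOI 0.2 with rHRSV-mCherry preincubated 15–20 min with serially diluted peptide, peptide kept in 2% FBS medium for 48 h at 37°C. Replication read as mCherry fluorescence (ex 580/em 620 nm), normalized to untreated infected cells; duplicates, curves fitted.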

A short description of data set [5]: Far-UV circular dichroism, α-helical content. To be noted: CD, 10 mM phosphate buffer pH 7.5, 50 μM peptide, 25°C. Format: physicochemical. The method, then: The circular dichroism spectra were acquired on a Chirascan spectropolarimeter. The samples were prepared in 10 mM phosphate buffer, pH 7.5, at a peptide concentration of 50 μM. Data were recorded at 25°C by step scan from 180 nm to 260 nm in a 0.5-mm path length quartz cell using 1-nm wavelength increments and a response time of 1 s. The data were converted to per residue molar ellipticity units [θ] (degree per square centimeter per decimole per residue) and smoothed using the Igor Pro software. The percentage of helicity was calculated as described previously ([35]).
A general note: Circular dichroism is widely used to follow secondary structure.

In data set [6] the test system is recombinant GFP-expressing RSV (strain A2) in A549 cells. Format: cell-based, human respiratory syncytial virus. Particulars: cellular RSV-eGFP assay, data not shown. On the procedure: A549 cells were infected with a recombinant green fluorescent protein (GFP)-expressing RSV (strain A2) ([23]), and the inhibitory activity of the peptide was quantified by flow cytometry.
Each peptide was diluted 3 times by 2-fold serial dilutions. eGFP RSV virus at an MOI of 0.5 was used for the infection, and GFP-positive cells were counted by FACS analysis 24 h p.i. The GFP data were normalized to the fluorescence values observed with virus only and plotted as percent inhibition.
Serial 4-fold dilutions of inhibitors were mixed with eGFP-encoding RSV virus ([23]) with a volume of virus required to achieve approximately 50% of infection in medium containing 2% fetal calf serum. The resulting mixture was added to 24-well plates containing A549 cells. Cells were incubated for 2 h at 37°C, the medium was replaced, and cells were incubated for an additional 24 h. Cells were treated with 300 μl of trypsin for 10 min at 37°C, and the detached cells were diluted in 1 ml of culture medium. Following centrifugation at 1,700 rpm, the pellet was resuspended in 300 μl of PBS–1% fetal bovine serum (FBS) (vol/vol) and GFP-positive cells were counted by fluorescence-activated cell sorter (FACS) analysis. The GFP data were normalized to the fluorescence value observed with virus only. The resulting inhibition curves were fitted in Igor Pro as described above.

Where [7] appears, read: RSV-Cherry MOI 0.2, peptide and virus removed after infection and fresh peptide added, mCherry fluorescence 48 h p.i., at least twice in duplicate.

Molecules are shown by their SMILES. Bridge positions count the residues as written; N and C are the ends. Square brackets hold non-standard residues; d marks the D form. Peptide text beside a SMILES is read from it. S5 = C=CCCC[C@](C)(N)C(=O)O Bounds are passed on as bounds.

Usually EC50 stands for the concentration that produces a half-maximal response. For `Cc1cn2nc([C@@H]3CCCCN3C(=O)c3cc(Cl)ccc3NS(C)(=O)=O)cc2nc1N1CC[C@H](N)C1` [GS-5806], the concentration for a half-maximal effect (EC50) in the data set with RSV was 0.4 nM.

`CC[C@H](C)[C@H](NC(=O)[C@H](Cc1ccccc1)NC(=O)[C@H](C)NC(=O)[C@H](CC(C)C)NC(=O)[C@H](CO)NC(=O)[C@H](CCC(N)=O)NC(=O)[C@H](CC(N)=O)NC(=O)[C@@H](NC(=O)[C@H](CCCCN)NC(=O)[C@H](CCC(=O)O)NC(=O)[C@H](CC(N)=O)NC(=O)[C@@H](NC(=O)[C@H](CCC(N)=O)NC(=O)[C@H](CO)NC(=O)[C@@H](NC(=O)[C@H](CCC(=O)O)NC(C)=O)[C@@H](C)CC)C(C)C)[C@@H](C)CC)C(=O)N[C@@H](CCCNC(=N)N)C(N)=O` [Peptide 2] (Ac-EISQVNEKINQSLAFIR-NH2): the solubility result in data set [1] is recorded as “insoluble in all solvents tested”.

For orientation: half-life means the time needed for the level to fall by half in the phase considered. A lower half-life goes with fast loss. The compound `CC[C@H](C)[C@H](NC(=O)[C@H](Cc1ccccc1)NC(=O)[C@H](C)NC(=O)[C@H](CC(C)C)NC(=O)[C@H](CO)NC(=O)[C@H](CCC(N)=O)NC(=O)[C@H](CC(N)=O)NC(=O)[C@@H](NC(=O)[C@H](CCCCN)NC(=O)[C@H](CCC(=O)O)NC(C)=O)[C@@H](C)CC)C(=O)N[C@@H](CCCNC(=N)N)C(=O)N[C@@H](CCCCN)C(=O)N[C@@H](CO)C(=O)N[C@@H](CC(=O)O)C(=O)N[C@@H](CCC(=O)O)C(=O)N[C@@H](CC(C)C)C(=O)N[C@@H](CC(C)C)C(=O)N[C@@H](Cc1c[nH]cn1)C(=O)N[C@@H](CC(N)=O)C(=O)N[C@H](C(N)=O)C(C)C` [Peptide 4] (Ac-EKINQSLAFIRKSDELLHNV-NH2) had a half-life at 2.9 µM in data set [2] of 0.08 h. Besides, the “time to full degradation” value in the data set on chymotrypsin is not above 10 min. Also, the half-life in data set [3] was 4.8 min. Besides, the EC50 in data set [4] (setting [7]) was more than 50000 nM.

As to `CC[C@H](C)[C@H](NC(=O)[C@H](CCCCN)NC(=O)[C@H](CCC(=O)O)NC(C)=O)C(=O)N[C@@H](CC(N)=O)C(=O)N[C@@H](CCC(N)=O)C(=O)N[C@@H](CO)C(=O)N[C@@H](CC(C)C)C(=O)N[C@@]1(C)CCCC=CCCC[C@@](C)(C(=O)N[C@@H](CO)C(=O)N[C@@H](CC(=O)O)C(=O)N[C@@]2(C)CCCC=CCCC[C@@](C)(C(=O)N[C@H](C(N)=O)C(C)C)NC(=O)[C@H](Cc3c[nH]cn3)NC(=O)[C@H](CC(C)C)NC(=O)[C@H](CC(C)C)NC2=O)NC(=O)[C@H](CCCNC(=N)N)NC(=O)[C@H]([C@@H](C)CC)NC(=O)[C@H](Cc2ccccc2)NC1=O` [Peptide 4a] (Ac-EKINQSL[S5]FIR[S5]SD[S5]LLH[S5]V-NH2; staple 8-12, 15-19), the “% Helicity” value in data set [5] (Table 2) was found to be 23.5%; in data set [5] (Table 3 (Ala scan)), 64%. In addition, in data set [6], the “potency relative to hit peptide 3ac” value is given as “twice more potent”. Also, the half-life at 2.9 µM in data set [2] is 74.7 h. In data set [3], this compound had a half-life of 78 min.

`CC[C@H](C)[C@H](NC(=O)[C@H](CCCCN)NC(=O)[C@H](CCC(=O)O)NC(C)=O)C(=O)N[C@@]1(C)CCCC=CCCC[C@@](C)(C(=O)N[C@@H](Cc2ccccc2)C(=O)N[C@H](C(=O)N[C@@]2(C)CCCC=CCCC[C@@](C)(C(=O)N[C@@H](CC(C)C)C(=O)N[C@@H](CC(C)C)C(=O)N[C@@H](Cc3c[nH]cn3)C(=O)N[C@@H](CC(N)=O)C(=O)N[C@H](C(N)=O)C(C)C)NC(=O)[C@H](CC(=O)O)NC(=O)[C@H](CO)NC(=O)[C@H](CCCCN)NC2=O)[C@@H](C)CC)NC(=O)[C@H](CC(C)C)NC(=O)[C@H](CO)NC(=O)[C@H](CCC(N)=O)NC1=O` [Peptide 4bb] (Ac-EKI[S5]QSL[S5]FI[S5]KSD[S5]LLHNV-NH2; staple 4-8, 11-15): the entries for the “% Helicity” value in data set [5] (Table 2) and in data set [5] (Table 3 (Ala scan)) were 48.1% and 53%, respectively. The compound also gave a half-life at 2.9 µM in data set [2] of 50.1 h. The half-life in data set [3] is 18 min. Besides, the EC50 in data set [4] (setting [7]) was 740 ± 270 nM; in data set [4] (Table 3 (Ala scan), rHRSV-mCherry MOI 0.2, 2-fold serial dilutions (11 dilutions), duplicate, ± SD of fit), 670 ± 70 nM.

As to `CC[C@H](C)[C@@H]1NC(=O)[C@H](CO)NC(=O)[C@](C)(NC(=O)[C@H](CC(=O)O)NC(=O)[C@H](Cc2ccccc2)NC(C)=O)CCCCCCC=CCCC[C@@](C)(C(=O)N[C@@H](CCCCN)C(=O)N[C@H](C(=O)N[C@@H](CC(N)=O)C(=O)N[C@@H](CCC(N)=O)C(=O)N[C@@H](CO)C(=O)N[C@@H](CC(C)C)C(=O)N[C@@H](C)C(=O)N[C@@H](Cc2ccccc2)C(=O)N[C@H](C(=O)N[C@]2(C)CCCCCCC=CCCC[C@@](C)(C(=O)N[C@@H](CC(N)=O)C(=O)N[C@H](C(=O)N[C@@H](CC(N)=O)C(=O)N[C@@H](C)C(=O)NCC(=O)N[C@@H](CCCCN)C(=O)N[C@@H](CO)C(=O)N[C@H](C(N)=O)[C@@H](C)O)C(C)C)NC(=O)[C@H](CC(C)C)NC(=O)[C@H](CC(C)C)NC(=O)[C@H](CCC(=O)O)NC(=O)[C@H](CC(=O)O)NC(=O)[C@H](CO)NC(=O)[C@H](CCCCN)NC2=O)[C@@H](C)CC)[C@@H](C)CC)NC(=O)[C@H](CC(N)=O)NC(=O)[C@H](C(C)C)NC(=O)[C@H](CCC(N)=O)NC(=O)[C@H](CO)NC1=O` [RSV-SAHBD (E), reference compound], the half-life at 2.9 µM in data set [2] was 6.5 h. In data set [3], this compound showed a half-life of 1.2 min.

These data come from paper PMC5365662, “A Short Double-Stapled Peptide Inhibits Respiratory Syncytial Virus Entry and Spreading” (Antimicrobial Agents and Chemotherapy, 2017).
